Experimental data published in ChEMBL document CHEMBL4425153, “Matched and mixed cap derivatives in the tetracyclic indole class of HCV NS5A inhibitors” (Bioorg Med Chem Lett, 2016).
Numbering of substitutions follows the chain as printed.

Legend:
[1] = Oral bioavailability in rat at 5 mg/kg; type: ADME, organism-based; conditions: in vivo
[2] = Half life in rat at 5 mg/kg; type: ADME, organism-based; conditions: in vivo
[3] = Cmax in rat at 5 mg/kg; type: ADME, organism-based; design: dose 5 mg/kg; conditions: in vivo
[4] = molecular target: T1, Nonstructural protein 5A (Hepatitis C virus) (UniProt Q5L478); test: Inhibition of wild type HCV genotype 1a NS5A assessed as reduction in viral RNA level by cell based real time PCR method; conditions: Hepatitis C virus subtype 1a
T1 sequence (whole entry): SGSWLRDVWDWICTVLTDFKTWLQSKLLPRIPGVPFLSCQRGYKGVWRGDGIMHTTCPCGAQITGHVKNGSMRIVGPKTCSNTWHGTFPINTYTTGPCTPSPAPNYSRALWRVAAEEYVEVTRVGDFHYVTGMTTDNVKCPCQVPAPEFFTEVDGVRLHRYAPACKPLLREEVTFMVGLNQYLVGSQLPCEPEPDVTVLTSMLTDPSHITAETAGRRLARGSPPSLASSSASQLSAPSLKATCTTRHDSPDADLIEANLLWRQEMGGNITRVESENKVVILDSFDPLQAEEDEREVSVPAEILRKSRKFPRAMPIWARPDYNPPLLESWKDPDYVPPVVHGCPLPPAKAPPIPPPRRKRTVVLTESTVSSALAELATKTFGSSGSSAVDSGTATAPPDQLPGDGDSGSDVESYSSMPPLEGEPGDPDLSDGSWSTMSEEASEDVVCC

[5] = molecular target: T1, Nonstructural protein 5A (Hepatitis C virus); test: Inhibition of wild type HCV genotype 2b NS5A assessed as reduction in viral RNA level by cell based real time PCR method; conditions: Hepatitis C virus subtype 2b
[6] = tested on: T2, Nonstructural protein 5A (Hepatitis C virus), Q5L478 [Y93H]; test: Inhibition of HCV genotype 1a NS5A Y93H mutant assessed as reduction in viral RNA level by cell based real time PCR method; conditions: Hepatitis C virus subtype 1a
T2 sequence (whole entry): T1 sequence (whole entry) with Y93H

[7] = tested on: Nonstructural protein 5A (Hepatitis C virus), Q5L478 [UNDEFINED MUTATION]; test: Inhibition of HCV genotype 1a NS5A L31V mutant assessed as reduction in viral RNA level by cell based real time PCR method; conditions: Hepatitis C virus subtype 1a
[8] = AUC in rat at 5 mg/kg; type: ADME, organism-based; conditions: in vivo
[9] = Tmax in rat at 10 mg/kg; type: ADME, organism-based; conditions: in vivo
[10] = Cmax in rat at 10 mg/kg; type: ADME, organism-based; design: dose 10 mg/kg; conditions: in vivo
[11] = Drug level in rat at 10 mg/kg measured at 1 hr; type: ADME, organism-based; conditions: in vivo, read-out: Drug uptake

Row | Structure (SMILES) | bioavailability [1] | half-life [2] | Cmax [3] | EC90 [4] | EC90 [5] | EC90 [6] | EC90 [7] | AUC [8] | Tmax [9] | Cmax [10] | concentration at 1 h [11]
1 | COC(=O)N[C@H](C(=O)N1CCC[C@H]1c1ncc(-c2ccc3c(c2)O[C@@H](c2ccccc2)n2c-3cc3cc(-c4cnc([C@@H]5CCCN5C(=O)[C@@H](NC(=O)OC)C5CCOCC5)[nH]4)ccc32)[nH]1)C1CCOCC1 | 0% | 2.4 h | 20 nM | 0.06 nM | 1.2 nM | 23 nM | < 0.2 nM | 4 nM·h |  |  | 
2 | COC(=O)N[C@H](C(=O)N1CCC[C@H]1c1ncc(-c2ccc3c(c2)O[C@@H](c2ccccc2)n2c-3cc3cc(-c4cnc([C@@H]5CCCN5C(=O)[C@@H](NC(=O)OC)C5CC5)[nH]4)ccc32)[nH]1)C1CC1 |  |  |  | 0.028 nM | > 100 nM | > 100 nM | > 100 nM |  |  |  | 
3 | CC[C@H](C)[C@H](NC(=O)OC)C(=O)N1CCC[C@H]1c1ncc(-c2ccc3c(c2)O[C@@H](c2ccccc2)n2c-3cc3cc(-c4cnc([C@@H]5CCCN5C(=O)[C@@H](NC(=O)OC)C(C)C)[nH]4)ccc32)[nH]1 |  |  |  | 0.06 nM | 50 nM | 77 nM | 4.3 nM |  |  |  | 
4 | COC(=O)N[C@H](C(=O)N1CCC[C@H]1c1ncc(-c2ccc3c(c2)cc2n3[C@H](c3ccccc3)Oc3cc(-c4cnc([C@@H]5CCCN5C(=O)[C@@H](NC(=O)OC)C5CCOCC5)[nH]4)ccc3-2)[nH]1)C(C)C |  |  |  | 0.061 nM | 4 nM | 11 nM | 0.4 nM |  | 0.75 h | 31 nM | 30 nM
